Key:
Experiment in all cases: Hot-Spot kinase profiling
Assay type in all cases: biochemical
[1] = target: T1, ABL1 (Homo sapiens, UniProt P00519); details: read-out: % Enzyme Activity (Relative to DMSO Controls) ABL1
T1 construct: purchased Reaction Biology Corp. (HotSpot kinase assay)
Experimental: (§1) Activities of kinases were determined using Hot-SpotSM kinase assay which was performed by Reaction Biology Corp. (Malvern PA, USA) as described previously.

[2] = system: ALK1/ACVR1; details: 0.15 μM
Experimental: as §1

[3] = target: T2, Aurora A (Homo sapiens, UniProt O14965); details: read-out: % Enzyme Activity (Relative to DMSO Controls) Aurora A
T2 construct: purchased Reaction Biology Corp. (HotSpot kinase assay)
Experimental: as §1

[4] = target: T3, CDK3/cyclin E (Homo sapiens, UniProt Q00526)
T3 construct: purchased Reaction Biology Corp
Experimental: as §1

[5] = target: T4, ERK7/MAPK15 (Homo sapiens, UniProt Q8TD08)
T4 construct: purchased Reaction Biology Corp
Experimental: as §1

[6] = target: T5, FGFR1 (Homo sapiens, UniProt P11362); details: read-out: % Enzyme Activity (Relative to DMSO Controls) FGFR1
T5 construct: purchased Reaction Biology Corp. (HotSpot kinase assay)
Experimental: as §1

[7] = target: T6, FLT3 (F594_R595insR) (Homo sapiens, UniProt P36888, INS594R)
T6 construct: purchased Reaction Biology Corp
Experimental: as §1

[8] = target: T7, FLT3 (Homo sapiens, UniProt P36888)
T7 construct: purchased Reaction Biology Corp
T7 sequence (P36888 27-993): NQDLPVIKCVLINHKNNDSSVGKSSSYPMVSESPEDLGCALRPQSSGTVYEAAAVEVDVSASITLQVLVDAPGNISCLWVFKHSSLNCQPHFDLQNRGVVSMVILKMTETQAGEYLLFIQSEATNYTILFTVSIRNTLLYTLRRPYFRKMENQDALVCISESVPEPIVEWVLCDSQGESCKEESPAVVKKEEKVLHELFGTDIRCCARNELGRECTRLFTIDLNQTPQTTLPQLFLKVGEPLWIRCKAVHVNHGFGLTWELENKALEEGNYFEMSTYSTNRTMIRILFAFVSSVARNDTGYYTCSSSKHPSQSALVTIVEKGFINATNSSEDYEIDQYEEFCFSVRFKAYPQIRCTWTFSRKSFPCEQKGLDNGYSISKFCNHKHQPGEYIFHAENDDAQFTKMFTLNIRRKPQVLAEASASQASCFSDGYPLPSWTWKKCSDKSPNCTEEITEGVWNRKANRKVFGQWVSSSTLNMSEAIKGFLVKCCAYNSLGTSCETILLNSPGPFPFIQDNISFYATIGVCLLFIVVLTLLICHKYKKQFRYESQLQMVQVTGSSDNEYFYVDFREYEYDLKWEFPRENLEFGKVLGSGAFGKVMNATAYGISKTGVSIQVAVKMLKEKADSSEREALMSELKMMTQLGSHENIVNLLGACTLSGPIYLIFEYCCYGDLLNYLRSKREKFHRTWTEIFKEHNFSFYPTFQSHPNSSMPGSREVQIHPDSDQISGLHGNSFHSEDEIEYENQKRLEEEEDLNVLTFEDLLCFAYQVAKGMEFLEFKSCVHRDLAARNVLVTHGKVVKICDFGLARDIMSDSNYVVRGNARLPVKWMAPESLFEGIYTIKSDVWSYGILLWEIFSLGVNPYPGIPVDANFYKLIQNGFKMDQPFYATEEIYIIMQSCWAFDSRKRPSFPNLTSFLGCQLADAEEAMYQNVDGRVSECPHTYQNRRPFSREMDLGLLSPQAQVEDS
Experimental: as §1

[9] = target: FLT3 (ITD)-NPOS (Homo sapiens, UniProt P36888, ITD)
Experimental: as §1

[10] = target: T8, FLT3 (ITD)-W51 (Homo sapiens, UniProt P36888, DUP595-601)
T8 construct: purchased Reaction Biology Corp
Experimental: as §1

[11] = target: T9, FLT3 (Y591-V592insVDFREYEYD) (Homo sapiens, UniProt P36888, INS591VDFREYEYD)
T9 construct: purchased Reaction Biology Corp
Experimental: as §1

[12] = target: T10, FLT4/VEGFR3 (Homo sapiens, UniProt P35916)
T10 construct: purchased Reaction Biology Corp
Experimental: as §1

[13] = target: T11, GSK3β (Homo sapiens, UniProt P49841)
T11 construct: purchased Reaction Biology Corp
Experimental: as §1

[14] = target: T12, PDGFRa (Homo sapiens, UniProt P16234); details: read-out: % Enzyme Activity (Relative to DMSO Controls) PDGFRa
T12 construct: purchased Reaction Biology Corp. (Malvern PA, USA)
Experimental: as §1

[15] = target: T13, SYK (Homo sapiens, UniProt P43405); details: read-out: % Enzyme Activity (Relative to DMSO Controls) SYK
T13 construct: purchased Reaction Biology Corp. (Malvern PA, USA)
Experimental: as §1

[16] = target: T14, c-Kit (Homo sapiens, UniProt P10721); details: read-out: % Enzyme Activity (Relative to DMSO Controls) c-Kit
T14 construct: purchased Reaction Biology Corp. (HotSpot kinase assay)
Experimental: as §1

[17] = target: T15, c-MET (Homo sapiens, UniProt P08581); details: read-out: % Enzyme Activity (Relative to DMSO Controls) c-MET
T15 construct: purchased Reaction Biology Corp. (HotSpot kinase assay)
Experimental: as §1

[18] = target: T16, c-Src (Homo sapiens, UniProt P12931); details: read-out: % Enzyme Activity (Relative to DMSO Controls) c-Src
T16 construct: purchased Reaction Biology Corp. (HotSpot kinase assay)
Experimental: as §1

T11 sequence (P49841 whole entry): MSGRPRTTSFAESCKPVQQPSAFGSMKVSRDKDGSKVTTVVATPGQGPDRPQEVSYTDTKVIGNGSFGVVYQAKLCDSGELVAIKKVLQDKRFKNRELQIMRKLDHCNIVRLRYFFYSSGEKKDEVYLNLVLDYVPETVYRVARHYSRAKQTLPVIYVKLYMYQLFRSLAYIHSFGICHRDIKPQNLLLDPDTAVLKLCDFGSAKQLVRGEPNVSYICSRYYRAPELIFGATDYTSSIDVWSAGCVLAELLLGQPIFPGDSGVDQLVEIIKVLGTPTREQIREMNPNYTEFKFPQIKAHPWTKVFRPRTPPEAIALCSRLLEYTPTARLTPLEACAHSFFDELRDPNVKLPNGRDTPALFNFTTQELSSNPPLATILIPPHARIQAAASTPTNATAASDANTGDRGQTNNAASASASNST
T6 sequence (P36888 with tags, fused parts or gaps INS594R limits assumed): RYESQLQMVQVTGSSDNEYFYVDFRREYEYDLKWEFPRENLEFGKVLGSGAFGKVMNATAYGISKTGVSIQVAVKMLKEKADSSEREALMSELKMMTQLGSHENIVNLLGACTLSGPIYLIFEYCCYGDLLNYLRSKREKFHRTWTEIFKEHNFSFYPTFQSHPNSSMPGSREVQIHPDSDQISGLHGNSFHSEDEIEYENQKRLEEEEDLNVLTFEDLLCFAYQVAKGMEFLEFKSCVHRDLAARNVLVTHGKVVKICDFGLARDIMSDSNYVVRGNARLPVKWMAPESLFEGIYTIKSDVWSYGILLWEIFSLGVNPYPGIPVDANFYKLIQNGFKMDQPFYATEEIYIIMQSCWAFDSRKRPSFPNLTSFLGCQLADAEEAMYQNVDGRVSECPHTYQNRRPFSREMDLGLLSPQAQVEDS
T10 sequence (P35916 25-1363): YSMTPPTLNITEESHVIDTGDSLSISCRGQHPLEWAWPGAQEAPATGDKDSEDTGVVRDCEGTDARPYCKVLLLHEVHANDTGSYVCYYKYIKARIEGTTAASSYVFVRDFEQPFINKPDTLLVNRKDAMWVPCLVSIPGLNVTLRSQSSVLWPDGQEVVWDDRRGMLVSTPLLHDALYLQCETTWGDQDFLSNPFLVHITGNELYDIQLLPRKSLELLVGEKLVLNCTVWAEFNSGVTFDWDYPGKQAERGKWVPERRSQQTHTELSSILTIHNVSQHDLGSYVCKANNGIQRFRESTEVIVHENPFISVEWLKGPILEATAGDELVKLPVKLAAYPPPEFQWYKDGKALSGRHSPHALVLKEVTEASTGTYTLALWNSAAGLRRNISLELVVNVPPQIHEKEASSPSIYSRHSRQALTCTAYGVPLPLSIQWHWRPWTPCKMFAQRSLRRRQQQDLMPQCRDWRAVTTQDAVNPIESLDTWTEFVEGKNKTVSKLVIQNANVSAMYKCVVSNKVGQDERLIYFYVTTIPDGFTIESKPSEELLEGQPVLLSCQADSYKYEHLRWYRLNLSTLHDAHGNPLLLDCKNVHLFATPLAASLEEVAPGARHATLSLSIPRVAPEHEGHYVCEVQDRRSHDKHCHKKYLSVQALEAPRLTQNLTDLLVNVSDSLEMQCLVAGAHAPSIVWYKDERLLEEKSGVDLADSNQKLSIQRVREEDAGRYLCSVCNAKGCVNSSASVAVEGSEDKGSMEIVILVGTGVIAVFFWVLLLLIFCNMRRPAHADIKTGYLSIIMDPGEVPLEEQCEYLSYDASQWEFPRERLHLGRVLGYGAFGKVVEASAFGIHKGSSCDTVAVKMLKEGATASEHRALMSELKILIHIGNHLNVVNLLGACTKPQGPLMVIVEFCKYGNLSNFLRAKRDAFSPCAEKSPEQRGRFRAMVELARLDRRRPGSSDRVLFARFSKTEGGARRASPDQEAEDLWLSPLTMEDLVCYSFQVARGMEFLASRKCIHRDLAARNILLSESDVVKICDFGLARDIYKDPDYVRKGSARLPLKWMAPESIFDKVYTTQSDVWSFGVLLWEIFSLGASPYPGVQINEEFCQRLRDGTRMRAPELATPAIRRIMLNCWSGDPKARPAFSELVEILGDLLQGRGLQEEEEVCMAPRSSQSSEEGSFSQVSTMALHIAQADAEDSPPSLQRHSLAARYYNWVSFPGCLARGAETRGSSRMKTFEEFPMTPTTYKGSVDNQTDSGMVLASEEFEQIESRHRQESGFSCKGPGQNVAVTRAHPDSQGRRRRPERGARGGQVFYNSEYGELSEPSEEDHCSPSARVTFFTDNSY
T4 sequence (Q8TD08 whole entry): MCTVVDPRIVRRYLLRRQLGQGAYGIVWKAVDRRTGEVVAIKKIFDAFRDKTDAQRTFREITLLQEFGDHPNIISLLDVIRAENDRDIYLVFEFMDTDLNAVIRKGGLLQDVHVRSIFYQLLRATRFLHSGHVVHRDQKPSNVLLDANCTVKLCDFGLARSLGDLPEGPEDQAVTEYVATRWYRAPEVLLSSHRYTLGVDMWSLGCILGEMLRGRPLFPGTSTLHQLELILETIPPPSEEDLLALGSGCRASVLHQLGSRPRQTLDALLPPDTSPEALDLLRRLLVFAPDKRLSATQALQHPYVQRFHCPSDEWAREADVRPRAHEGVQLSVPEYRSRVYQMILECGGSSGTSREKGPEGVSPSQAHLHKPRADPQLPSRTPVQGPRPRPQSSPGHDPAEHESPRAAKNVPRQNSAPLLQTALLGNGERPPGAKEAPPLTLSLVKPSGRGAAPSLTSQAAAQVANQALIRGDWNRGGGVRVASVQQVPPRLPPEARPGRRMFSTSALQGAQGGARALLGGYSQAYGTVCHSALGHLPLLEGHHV
T9 sequence (P36888 with tags, fused parts or gaps with the stated changes limits assumed): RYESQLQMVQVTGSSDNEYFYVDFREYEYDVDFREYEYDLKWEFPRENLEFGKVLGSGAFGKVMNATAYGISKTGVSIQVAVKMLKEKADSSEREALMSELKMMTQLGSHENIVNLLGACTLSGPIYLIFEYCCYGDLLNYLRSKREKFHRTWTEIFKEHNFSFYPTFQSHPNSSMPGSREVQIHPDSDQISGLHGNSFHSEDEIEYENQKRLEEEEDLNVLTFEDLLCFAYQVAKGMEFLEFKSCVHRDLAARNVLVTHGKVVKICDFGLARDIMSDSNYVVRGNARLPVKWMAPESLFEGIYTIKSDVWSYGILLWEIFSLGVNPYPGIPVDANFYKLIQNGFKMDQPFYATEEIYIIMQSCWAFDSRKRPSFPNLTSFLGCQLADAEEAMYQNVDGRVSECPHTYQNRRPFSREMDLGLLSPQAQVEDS
T8 sequence (P36888 with tags, fused parts or gaps DUP595-601 limits assumed): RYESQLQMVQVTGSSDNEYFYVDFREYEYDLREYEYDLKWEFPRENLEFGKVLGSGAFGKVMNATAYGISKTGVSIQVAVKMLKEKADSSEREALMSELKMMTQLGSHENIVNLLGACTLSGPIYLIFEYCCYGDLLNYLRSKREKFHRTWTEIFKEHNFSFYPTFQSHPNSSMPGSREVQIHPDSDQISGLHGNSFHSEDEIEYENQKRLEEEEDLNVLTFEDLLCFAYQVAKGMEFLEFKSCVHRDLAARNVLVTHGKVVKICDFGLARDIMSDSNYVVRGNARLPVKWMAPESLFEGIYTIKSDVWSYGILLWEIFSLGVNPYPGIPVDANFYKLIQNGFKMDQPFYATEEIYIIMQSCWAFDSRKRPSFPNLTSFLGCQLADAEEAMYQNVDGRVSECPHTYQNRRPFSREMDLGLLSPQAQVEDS
T3 sequence (Q00526 whole entry): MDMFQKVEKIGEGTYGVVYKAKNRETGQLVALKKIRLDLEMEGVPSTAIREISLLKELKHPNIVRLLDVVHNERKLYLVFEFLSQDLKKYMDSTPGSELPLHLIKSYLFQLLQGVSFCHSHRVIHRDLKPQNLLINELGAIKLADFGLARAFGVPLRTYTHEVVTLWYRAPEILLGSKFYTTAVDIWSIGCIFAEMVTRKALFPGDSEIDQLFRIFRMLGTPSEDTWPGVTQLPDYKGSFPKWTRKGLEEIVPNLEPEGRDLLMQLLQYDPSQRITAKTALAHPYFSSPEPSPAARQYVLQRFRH
T3 sequence (P24864 whole entry partner): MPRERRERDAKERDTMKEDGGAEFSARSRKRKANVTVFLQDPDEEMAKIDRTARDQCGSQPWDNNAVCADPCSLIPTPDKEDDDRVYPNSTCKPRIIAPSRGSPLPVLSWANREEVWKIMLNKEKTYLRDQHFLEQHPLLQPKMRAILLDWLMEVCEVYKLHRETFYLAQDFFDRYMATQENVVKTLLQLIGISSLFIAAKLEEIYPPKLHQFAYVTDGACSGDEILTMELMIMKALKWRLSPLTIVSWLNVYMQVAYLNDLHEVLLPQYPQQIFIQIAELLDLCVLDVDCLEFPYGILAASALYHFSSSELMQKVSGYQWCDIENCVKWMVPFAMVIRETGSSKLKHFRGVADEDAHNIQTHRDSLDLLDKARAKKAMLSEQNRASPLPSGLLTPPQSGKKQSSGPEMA
T2 sequence (O14965 whole entry): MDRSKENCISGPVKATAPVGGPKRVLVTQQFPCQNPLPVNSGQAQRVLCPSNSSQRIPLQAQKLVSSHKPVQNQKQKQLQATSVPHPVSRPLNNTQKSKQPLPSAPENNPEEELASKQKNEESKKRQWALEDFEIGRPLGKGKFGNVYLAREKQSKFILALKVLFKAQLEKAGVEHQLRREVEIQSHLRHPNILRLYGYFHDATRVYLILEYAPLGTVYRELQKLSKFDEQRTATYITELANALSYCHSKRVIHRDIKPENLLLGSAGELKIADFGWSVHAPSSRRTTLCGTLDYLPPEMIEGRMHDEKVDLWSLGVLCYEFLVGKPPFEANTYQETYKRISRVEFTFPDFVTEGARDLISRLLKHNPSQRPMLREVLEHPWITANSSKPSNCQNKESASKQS

SMILES: O=C(Nc1ccc(N2CCNCC2)cc1)c1n[nH]cc1Nc1ncnc2sc3c(c12)CCC3 [Compound 8t]
- remaining activity at 0.15 µM [1]: 81%
- % Enzyme Activity (Relative to DMSO Controls) ALK1/ACVR1 [2]: 57.96%
- remaining activity at 0.15 µM [3]: 38%
- remaining activity at 0.15 µM ([4]; 0.15 μM, read-out: % Enzyme Activity (Relative to DMSO Controls) CDK3/cyclin E): 5.94%
- IC50 ([4]; Table 5 kinase profiling): 6.88 ± 0.25 nM
- remaining activity at 0.15 µM ([5]; 0.15 μM, read-out: % Enzyme Activity (Relative to DMSO Controls) ERK7/MAPK15): 2.96%
- IC50 ([5]; Table 5 kinase profiling): 9.57 ± 0.23 nM
- remaining activity at 0.15 µM [6]: 40%
- remaining activity at 0.15 µM ([7]; 0.15 μM, read-out: % Enzyme Activity (Relative to DMSO Controls) FLT3 (F594_R595insR)): 0.47%
- IC50 ([7]; Table 5 kinase profiling): 0.63 ± 0.09 nM
- remaining activity at 0.15 µM ([8]; 0.15 μM, read-out: % Enzyme Activity (Relative to DMSO Controls) FLT3): 0.01%
- IC50 ([8]; Table 5 kinase profiling): 0.035 ± 0.01 nM
- remaining activity at 0.15 µM ([9]; 0.15 μM, read-out: % Enzyme Activity (Relative to DMSO Controls) FLT3 (ITD)-NPOS): 1.38%
- IC50 ([9]; Table 5 kinase profiling): 4.32 ± 0.23 nM
- remaining activity at 0.15 µM ([10]; 0.15 μM, read-out: % Enzyme Activity (Relative to DMSO Controls) FLT3 (ITD)-W51): 0.51%
- IC50 ([10]; Table 5 kinase profiling): 0.94 ± 0.09 nM
- IC50 ([11]; Table 5 kinase profiling, read-out: IC50 FLT3 (Y591-V592ins[…])): 0.66 ± 0.08 nM
- remaining activity at 0.15 µM ([11]; read-out: % Enzyme Activity (Relative to DMSO Controls) FLT3 (Y591-V592insVDFREYEYD), 0.15 μM, read-out: % Enzyme Activity (Relative to DMSO Controls) FLT3 (Y591-V592ins[…])): 0.54%
- remaining activity at 0.15 µM ([12]; 0.15 μM, read-out: % Enzyme Activity (Relative to DMSO Controls) FLT4/VEGFR3): 3.62%
- IC50 ([12]; Table 5 kinase profiling): 4.16 ± 0.19 nM
- remaining activity at 0.15 µM ([13]; 0.15 μM, read-out: % Enzyme Activity (Relative to DMSO Controls) GSK3b): 8.65%
- IC50 ([13]; Table 5 kinase profiling): 12 ± 1.2 nM
- remaining activity at 0.15 µM [14]: 82.8%
- remaining activity at 0.15 µM [15]: 35.4%
- remaining activity at 0.15 µM [16]: 64.8%
- remaining activity at 0.15 µM [17]: 99%
- remaining activity at 0.15 µM [18]: 73.8%

Source: paper PMC6887723, “Design and Synthesis of 4-(Heterocyclic Substituted Amino)-1H-Pyrazole-3-Carboxamide Derivatives and Their Potent Activity against Acute Myeloid Leukemia (AML)” (International Journal of Molecular Sciences, 2019)
